As usually defined, the IC50 is the point on the concentration scale where inhibition reaches its midpoint. What is called inhibition in vivo is the percentage by which the read-out fell short of the control. A high value points to a response far below the control.

The nature of data set [1]: Antiinflammatory activity in human primary synovial fibroblasts assessed as inhibition of IL1-induced IL6 release after 18 hrs by MSD technology. It counts as functional.
The nature of data set [2]: Antiinflammatory activity in human primary synovial fibroblasts assessed as inhibition of IL1-induced IL8 release after 18 hrs by MSD technology. It counts as functional.
Data set [3] is described as follows: Antiinflammatory activity in human primary synovial fibroblasts assessed as inhibition of IL1-induced MMP1 release after 18 hrs by MSD technology. It counts as functional.
A short description of data set [4]: Toxicity in human skeletal muscle cells assessed as increase in glutamine synthase mRNA level after 18 hrs by PCR.
The test system of another data set is Hepatocyte. The data set is described as follows: Toxicity in human hepatocytes assessed as increase in PEPCK mRNA level after 18 hrs by PCR. The class given is cell-based.
The nature of data set [5]: Plasma concentration in mouse bearing mouse NIH-3T3 cells integrated with MMTV reporter gene at 10 mg/kg, po after 1 hr. More on the design: dose 10 mg/kg, route oral. It counts as ADME, organism-based, NIH3T3.
Data set [6] is described as follows: Relative plasma concentration in mouse assessed as ratio of plasma concentration in mouse at 10 mg/kg, po to IC50 for NF-kappaB transrepression activity in A549 cells expressing MMTV reporter gene. The class given is ADME, organism-based. Details: dose 10 mg/kg, route oral. The note with it: in vivo. In general terms: In a reporter assay the amount or activity of a reporter protein is the signal.

Data set [7] in a line: Relative fraction unbound in mouse assessed as ratio of fraction unbound in mouse at 10 mg/kg, po to IC50 for NF-kappaB transrepression activity in A549 cells expressing MMTV reporter gene. The class given is ADME, organism-based. Details: dose 10 mg/kg, route oral. The settings on record: in vivo.
The nature of data set [8]: Plasma concentration in mouse bearing mouse NIH-3T3 cells integrated with MMTV reporter gene at 1 mg/kg, po after 1 hr. The class given is ADME, organism-based, NIH3T3. Details: dose 1 mg/kg, route oral.
Data set [9] can be described thus: Relative plasma concentration in mouse assessed as ratio of plasma concentration in mouse at 1 mg/kg, po to IC50 for NF-kappaB transrepression activity in A549 cells expressing MMTV reporter gene. It counts as ADME, organism-based. The note with it: in vivo. Details: dose 1 mg/kg, route oral.
Data set [10] can be described thus: Relative fraction unbound in mouse assessed as ratio of fraction unbound in mouse at 1 mg/kg, po to IC50 for NF-kappaB transrepression activity in A549 cells expressing MMTV reporter gene. More on the design: dose 1 mg/kg, route oral. The note with it: in vivo. It counts as ADME, organism-based.
The nature of data set [11]: Plasma concentration in mouse bearing mouse NIH-3T3 cells integrated with MMTV reporter gene at 0.1 mg/kg, po after 1 hr. The class given is ADME, organism-based, NIH3T3. More on the design: dose 0.1 mg/kg, route oral.
Data set [12] can be described thus: Relative plasma concentration in mouse assessed as ratio of plasma concentration in mouse at 0.1 mg/kg, po to IC50 for NF-kappaB transrepression activity in A549 cells expressing MMTV reporter gene. It counts as ADME, organism-based. More on the design: dose 0.1 mg/kg, route oral. The settings on record: in vivo.
Data set [13] is described as follows: Relative fraction unbound in mouse assessed as ratio of fraction unbound in mouse at 0.1 mg/kg, po to IC50 for NF-kappaB transrepression activity in A549 cells expressing MMTV reporter gene. The note with it: in vivo. More on the design: dose 0.1 mg/kg, route oral. The class given is ADME, organism-based.
Data set [14] can be described thus: Plasma concentration in mouse bearing mouse NIH-3T3 cells integrated with MMTV reporter gene at 0.01 mg/kg, po after 1 hr. It counts as ADME, organism-based, NIH3T3. Details: dose 0.01 mg/kg, route oral.
A short description of data set [15]: Relative plasma concentration in mouse assessed as ratio of plasma concentration in mouse at 0.01 mg/kg, po to IC50 for NF-kappaB transrepression activity in A549 cells expressing MMTV reporter gene. It counts as ADME, organism-based. Details: dose 0.01 mg/kg, route oral. The settings on record: in vivo.
The nature of data set [16]: Relative fraction unbound in mouse assessed as ratio of fraction unbound in mouse at 0.01 mg/kg, po to IC50 for NF-kappaB transrepression activity in A549 cells expressing MMTV reporter gene. More on the design: dose 0.01 mg/kg, route oral. The settings on record: in vivo. The class given is ADME, organism-based.
The subject of data set [17] is Mus musculus. The data set is described as follows: Inhibition of IL1-induced circulating IL6 release in mouse at 10 mg/kg, po. The class given is functional.
The subject of data set [18] is Mus musculus. The data set is described as follows: Inhibition of IL1-induced circulating IL6 release in mouse at 1 mg/kg, po. It counts as functional.
The test system of data set [19] is Mus musculus. The data set is described as follows: Inhibition of IL1-induced circulating IL6 release in mouse at 0.1 mg/kg, po. It counts as functional.
For data set [20], the system named is Mus musculus. The experiment in a line: Inhibition of IL1-induced circulating IL6 release in mouse at 0.01 mg/kg, po. The class given is functional.

On to `C[C@@H]1C[C@H]2[C@@H]3CCC4=CC(=O)C=C[C@]4(C)[C@@]3(F)[C@@H](O)C[C@]2(C)[C@@]1(O)C(=O)CO` [DEXAMETHASONE], for which the figures for the IC50 in [1], in data set [2] and in data set [3] were 0.631 nM, 0.501 nM and 0.316 nM, respectively. The Activity entry (in [4]; with Hepatocyte) was “Toxic” each time. Also, the concentration at 1 h in data set [5] came out at 17700 nM; in [8], 1800 nM; in data set [11], 236 nM; in data set [14] it was 44 nM. The “fold change (FC)” value in data set [6] came out at 2944; in [7], 870; in [9] it was 300; in data set [10] it was 86; in [12] it was 40; in data set [13], 8. The “fold change (FC)” value in data set [15] is reported as 7; in [16] it was 0.4. Further, the inhibition in vivo at 10 mg/kg with Mus musculus [17] is 83%. Further, the inhibition in vivo at 1 mg/kg in the data set on Mus musculus [18] is 88%. The molecule further yielded an inhibition in vivo at 0.1 mg/kg in the data set on Mus musculus [19] of 67%. This molecule had an inhibition in vivo at 0.01 mg/kg in the data set on Mus musculus [20] of 24%.
